Broadly, the EC50 is the concentration at which the effect is half-maximal.

The text below walks through data of patent publication US8835415B2, “Standardized composition, method of manufacture and use in the resolution of RNA virus infection” (priority 2009, dated 2014).

Where only a bound is given, the exact number is not on record here.

In this assay the test system is H1N1 virus, Resistant strain (6706). Briefly: microbe, parasite or virus in culture. Type of assay: cell-based. To be noted: Influenza A virus, H1N1, MDCK.

Consider `CCOC(=O)C1=C[C@@H](OC(CC)CC)[C@H](NC(C)=O)[C@@H](N)C1` [Tamiflu, Oseltamivir], for which the EC50 is greater than 5 µM.
